US6946253B2, “Herpes zinc finger motifs” (University Court of the University of Glasgow, priority 2000, dated 2005)

Experiments:
[1] = test system: baby hamster kidney BHK21/C13 cells; assay: Cytotoxicity, Trypan Blue exclusion staining; format: cell-based; conditions: 100 μM (highest concentration), up to 4 days
Experimental: Cytotoxicity. Both compounds azodicarbonamide (ADA, NSC 674447) and 2,2′,-dithiobisbenzamide (DIBA, NSC 654077) were dissolved at the appropriate concentration in 0.1% (v/v) dimethylsulphoxide (DMSO) in Eagle's modified medium. Confluent monolayers (2×10^6) of baby hamster kidney BHK21/C13 cells were incubated with various concentrations of either ADA or DIBA (1,10,100 μM) or as a control 0.1% (v/v) DMSO, and cell viability determined every day for 4 days by Trypan Blue exclusion staining (23).
Determination or cytotoxicity of ADA and DIBA. In view of the distinctive sequence conservation of the IE63 zinc finger two previously known zinc-ejecting anti-HIV-1 compounds, 2,2′-dithiobisbenzamide (DIBA) and azodicarbonamide (ADA) were tested for their effect on herpesvirus. To separate any effect on cell viability from a specific effect on virus replication, the effect of incubating BHK21/C13 cells in various concentrations of ADA, DIBA, and 0.1% (v/v) DMSO as a control, for up to 4 days was determined. Even at the highest concentration used (100 μM) 95% of the cells were viable compared to untreated BHK21/C13 cells (data not shown). Indeed any cytotoxicity observed was due to the DMSO in which the drugs were dissolved, as the cytotoxicity was equally great in those cells incubated with only DMSO (data not shown).

[2] = test system: herpes simplex virus type 1 (HSV-1) strain 17; assay: Virus replication (virus yield) in BHK21/C13 cells; format: cell-based; conditions: moi 5, 24 h pi
Experimental: (§1) Virus replication. Semi-confluent monolayers of BHK21/C13 cells (2×10^6) were pre-incubated with the appropriate drug concentration, 0.1% DMSO (v/v) or mock treated as a control for 24 h and subsequently infected at a multiplicity of infection (moi) of 5 plaque forming units (pfu)/cell with either herpes simplex virus type 1 (HSV-1) strain 17 or HSV-2 strain HG52 and harvested 24 h post-infection (pi). The virus yield was determined by releasing the virus into the supernatant by sonication and titration on BHK21/C13 cells. Results were expressed as pfu/10^6 cells and % reduction in yield as compared to the untreated control (23).
(§2) Antiviral effect of ADA and DIBA. Two experiments were carried out. In the first, the effect of varying concentrations of ADA and DIBA on the replication of HSV-1 was analysed. In the second, the effect on both HSV-1 and HSV-2 was determined.

HSV-2 = assay: Plaque reduction assay in BHK21/C13 cells; format: cell-based, herpes simplex virus type 2; conditions: HSV-2, plaque reduction assay
Experimental: Plaque reduction assay. Confluent monolayers (4×10^6 cells) of BHK21/C13 cells were preincubated with the appropriate drug concentration, 0.1% DMSO(v/v) or mock treated as a control for 24 h and subsequently infected at a moi of 400 pfu/plate with either HSV-1 or HSV-2 and incubated for 48 h at 37° C. […] Tests of each drug concentration were performed in triplicate and the average of the 3 plates calculated. […]
(§3) Plaquing Efficiency in the Presence of ADA and DIBA. To determine if the reduction in virus yield seen in the previous experiment was due to a virucidal effect, inhibition of virus entry (adsorption penetration) or intracellular replication, a plaque reduction assay was carried out. Here, the ability of the virus to plaque was measured. An effect on the stability of the virus particle or virus entry would lead to a reduction in the number of plaques compared to the control untreated plates for a given amount of virus. In contrast, an effect on intracellular virus replication would not lead to a significant reduction in plaques.

HSV-1 = assay: Plaque reduction assay in BHK21/C13 cells; format: cell-based, herpes simplex virus type 1; conditions: HSV-1, plaque reduction assay
Experimental: Plaque reduction assay. Confluent monolayers (4×10^6 cells) of BHK21/C13 cells were preincubated with the appropriate drug concentration, 0.1% DMSO(v/v) or mock treated as a control for 24 h and subsequently infected at a moi of 400 pfu/plate with either HSV-1 or HSV-2 and incubated for 48 h at 37° C. […] Tests of each drug concentration were performed in triplicate and the average of the 3 plates calculated. Results were expressed as pfu/plate and % of the number of plaques on the untreated control plates (23).
as §3

HSV-2 strain HG52 = assay: Virus replication (virus yield) in BHK21/C13 cells; format: cell-based, herpes simplex virus type 2; conditions: experiment 2 (Table 2), moi 5, 24 h pi
Experimental: as §1, §2

[3] = experiment 1 (Table 1), HSV-1, 1 μM
[4] = experiment 1 (Table 1), HSV-1, 10 μM
[5] = experiment 1 (Table 1), HSV-1, 100 μM
[6] = experiment 2 (Table 2), HSV-1, 1 μM
[7] = experiment 2 (Table 2), HSV-1, 10 μM
[8] = experiment 2 (Table 2), HSV-1, 100 μM

Structure (SMILES)	cells viable compared to untreated BHK21/C13 cells [1] [%]	% UNTREATED CONTROL (virus yield) [2, 3] [%]	VIRUS YIELD (pfu/10^6 BHK cells) [2, 3]	VIRUS YIELD (pfu/BHK cell) [2, 3] [pfu/BHK cell]	% UNTREATED CONTROL (virus yield) [2, 4] [%]	VIRUS YIELD (pfu/10^6 BHK cells) [2, 4]	VIRUS YIELD (pfu/BHK cell) [2, 4] [pfu/BHK cell]	% UNTREATED CONTROL (virus yield) [2, 5] [%]	VIRUS YIELD (pfu/10^6 BHK cells) [2, 5]	VIRUS YIELD (pfu/BHK cell) [2, 5] [pfu/BHK cell]	% UNTREATED CONTROL (virus yield) [2, 6] [%]	VIRUS YIELD (pfu/10^6 BHK cells) [2, 6]	VIRUS YIELD (pfu/BHK cell) [2, 6] [pfu/BHK cell]	% UNTREATED CONTROL (virus yield) [2, 7] [%]	VIRUS YIELD (pfu/10^6 BHK cells) [2, 7]	VIRUS YIELD (pfu/BHK cell) [2, 7] [pfu/BHK cell]	VIRUS YIELD (pfu/10^6 BHK cells) [2, 8]	VIRUS YIELD (pfu/BHK cell) [2, 8] [pfu/BHK cell]	size of the plaques (HSV-2)	size of the plaques (HSV-1)	further results
NC(=O)N=NC(N)=O [ADA, azodicarbonamide]	95	76	6.1 × 10^8 pfu/10^6 BHK cells	610	19	1.5 × 10^8 pfu/10^6 BHK cells	150	11	9 × 10^6 pfu/10^6 BHK cells	9.0	15	9.3 × 10^7 pfu/10^6 BHK cells	93	1.4	8.5 × 10^6 pfu/10^6 BHK cells	8.5	1.2 × 10^6 pfu/10^6 BHK cells	1.2	reduction in the size of the plaques	reduction in the size of the plaques	% UNTREATED CONTROL (virus yield) (HSV-2 strain HG52; HSV-2, 1 μM): 13%; VIRUS YIELD (pfu/10^6 BHK cells) (HSV-2 strain HG52; HSV-2, 1 μM): 9.4 × 10^6 pfu/10^6 BHK cells; VIRUS YIELD (pfu/BHK cell) (HSV-2 strain HG52; HSV-2, 1 μM): 9.4 pfu/BHK cell; % UNTREATED CONTROL (virus yield) (HSV-2 strain HG52; HSV-2, 10 μM): 1.2%; VIRUS YIELD (pfu/10^6 BHK cells) (HSV-2 strain HG52; HSV-2, 10 μM): 8.5 × 10^5 pfu/10^6 BHK cells; VIRUS YIELD (pfu/BHK cell) (HSV-2 strain HG52; HSV-2, 10 μM): 0.85 pfu/BHK cell; VIRUS YIELD (pfu/10^6 BHK cells) (HSV-2 strain HG52; HSV-2, 100 μM): 2.3 × 10^5 pfu/10^6 BHK cells; VIRUS YIELD (pfu/BHK cell) (HSV-2 strain HG52; HSV-2, 100 μM): 0.23 pfu/BHK cell
NC(=O)c1ccccc1SSc1ccccc1C(N)=O [DIBA, 2,2′-dithiobisbenzamide]	95	85	6.8 × 10^8 pfu/10^6 BHK cells	680	20	1.6 × 10^8 pfu/10^6 BHK cells	160	2.5	2 × 10^7 pfu/10^6 BHK cells	20	20	1.2 × 10^8 pfu/10^6 BHK cells	120	1.6	9.6 × 10^6 pfu/10^6 BHK cells	9.6	1.9 × 10^6 pfu/10^6 BHK cells	1.9	reduction in the size of the plaques	reduction in the size of the plaques	% UNTREATED CONTROL (virus yield) (HSV-2 strain HG52; HSV-2, 1 μM): 17%; VIRUS YIELD (pfu/10^6 BHK cells) (HSV-2 strain HG52; HSV-2, 1 μM): 1.2 × 10^7 pfu/10^6 BHK cells; VIRUS YIELD (pfu/BHK cell) (HSV-2 strain HG52; HSV-2, 1 μM): 12 pfu/BHK cell; % UNTREATED CONTROL (virus yield) (HSV-2 strain HG52; HSV-2, 10 μM): 2%; VIRUS YIELD (pfu/10^6 BHK cells) (HSV-2 strain HG52; HSV-2, 10 μM): 1.4 × 10^6 pfu/10^6 BHK cells; VIRUS YIELD (pfu/BHK cell) (HSV-2 strain HG52; HSV-2, 10 μM): 1.4 pfu/BHK cell; VIRUS YIELD (pfu/10^6 BHK cells) (HSV-2 strain HG52; HSV-2, 100 μM): 3.1 × 10^5 pfu/10^6 BHK cells; VIRUS YIELD (pfu/BHK cell) (HSV-2 strain HG52; HSV-2, 100 μM): 0.31 pfu/BHK cell
